# According to article PMC8387043, “Host Poly(A) Polymerases PAPD5 and PAPD7 Provide Two Layers of Protection That Ensure the Integrity and Stability of Hepatitis B Virus RNA” (Journal of Virology, 2021):
# Like-named read-outs stand apart in the source and are kept apart here.
# Legend:
# [1] = system: HBsAg; assay: HBsAg inhibition in adenovirus-HBsAg-transduced HepG2-NTCP WT and KO clones; assay type: cell-based, hepatitis B virus; settings: for EC50: Hepatitis B virus
# [2] = Cytotoxicity (summary statement); assay type: cell-based; settings: several cell lines from different tissue origins; 30 μM highest concentration tested
# [3] = system: HBV RNA poly(A) tails; assay: HBV sRNA poly(A) tail NGS in HepG2-NTCP WT and KO clones
# [4] = system: HBV; assay: HBsAg inhibition in PLC/PRF/5 cells; assay type: cell-based; settings: Hepatitis B virus
# Method: AB-452 and RG7834 both belong to the dihydroquinolizinones chemical class. The antiviral activities of AB-452 and its diastereomer ARB-169451 were evaluated using multiple in vitro HBV replication models, including HepG2.2.15 cells (which constitutively express HBV through the integrated viral genome), PLC/PRF/5 cells (a patient-derived hepatocellular carcinoma cell line only expressing HBsAg), and HBV-infected HepG2-NTCP cells or primary human hepatocytes (PHHs) in which viral replication was dependent on cccDNA transcription (Table 1).
# HepG2.2.15, HepAD38, and PLC/PRF/5 cells were cultured in Dulbecco’s modified Eagle medium (DMEM)/F12 medium (Corning, NY, USA), supplemented with 10% fetal bovine serum (Gemini, CA, USA), 100 U/ml penicillin, and 100 μg/ml streptomycin. Huh-7 cells (Creative Bioarray, NY, USA) were cultured in RPMI 1640 medium (Basel, Switzerland) containing 10% fetal bovine serum, 100 U/ml penicillin, and 100 μg/ml streptomycin. HepG2-hNTCP-C4 cells were cultured in DMEM medium (Gibco, MA, USA) containing 10% fetal bovine serum and 10 mM HEPES (Gibco).
# [5] = system: HCV; assay: Antiviral selectivity panel, luciferase in Huh-7 cells; assay type: cell-based; settings: Hepatitis C virus; Huh-7, Luciferase
# [6] = system: HIV; assay: Antiviral selectivity panel, CPE in CEM-SS cells; assay type: cell-based; settings: Human immunodeficiency virus 1
# [7] = system: HBV PRE; assay: HBV PRE cis-element reporter plasmids (HBsAg or Gluc) transfected in Huh-7 cells; settings: Hepatitis B virus
# [8] = system: Human rhinovirus; assay: Antiviral selectivity panel, CPE in H1-HeLa cells; assay type: cell-based; settings: Human rhinovirus sp.
# [9] = system: HBV; assay: Antiviral assay in HepG2.2.15 cells (HBsAg/HBeAg CLIA, secreted HBV DNA qPCR); assay type: cell-based, hepatitis B virus; settings: Hepatitis B virus
# [10] = system: HBV; assay: Antiviral assay in HBV-infected HepG2-NTCP cells; assay type: cell-based; settings: Hepatitis B virus
# [11] = target: T1, recombinant human PAPD7 (Homo sapiens, UniProt Q5XG87); assay: PAPD7 ATP depletion assay; assay type: biochemical
# T1 construct: PAPD7 (amino acids 226 to 558; NM_006999.6); 10xHis (N); Flag (N); TEV cleavage site (N); host or cells: E. coli BL21(DE3), vector pET-24a(+)
# T1 sequence (Q5XG87 226-558): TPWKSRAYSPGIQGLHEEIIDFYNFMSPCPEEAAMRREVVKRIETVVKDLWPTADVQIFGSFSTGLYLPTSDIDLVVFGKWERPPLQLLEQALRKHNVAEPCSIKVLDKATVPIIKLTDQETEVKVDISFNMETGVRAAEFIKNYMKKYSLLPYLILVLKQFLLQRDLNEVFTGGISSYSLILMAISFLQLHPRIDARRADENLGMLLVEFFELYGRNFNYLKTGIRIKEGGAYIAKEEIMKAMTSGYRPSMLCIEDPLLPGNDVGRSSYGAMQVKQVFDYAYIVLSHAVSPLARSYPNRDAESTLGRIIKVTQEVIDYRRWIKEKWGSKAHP
# Method: Molecular cloning, expression, and purification of the recombinant human PAPD5 and PAPD7 proteins were performed at Xtal BioStructures (MA, USA). PAPD5 (amino acids 186 to 518; GenBank accession no. XM_011523275) and PAPD7 (amino acids 226 to 558; GenBank accession no. NM_006999.6) genes comprising of nucleotidyltransferase and PAP-associated domains were codon optimized, synthesized, and inserted in the expression vector pET-24a(+) for E. coli expression with 10×His-Flag-tobacco etch virus (TEV) tags at the N terminus. The pET-24a(+) constructs were transformed into E. coli-competent cells BL21(DE3). […] Expression of protein was induced for 16 h with 0.2 mM IPTG (isopropyl-β-D-thiogalactopyranoside) at 18°C. […] Roche). Cell suspension was sonicated 8 × 20 s at 27 to 30 W (power level, 3.5 to 4.0) with 40-s breaks between each pulse. Lysate was cleared by centrifugation in a 50-ml conical tube at 20,000 × g for 30 min (Fiberlite F13-14 × 50cy rotor in a Sorvall RC6 centrifuge). Supernatant was incubated with Ni-charged MagBeads (GenScript; catalog no. […] Bound proteins were washed with 50 ml binding buffer and eluted in elution buffer containing a gradient of imidazole ranging from 5 to 500 mM. Peak fractions were pooled and stored in 50% glycerol at -80°C. Reactions were carried out in duplicate in 96-well low-profile, skirted, white plates (catalog no. AB0800WL; […] The reaction mixtures were incubated at room temperature for 3 h, and ATP depletion was monitored by using Kinase-Glo luminescent kinase kit following the manufacturer's instructions (catalog no. V6712; Promega, WI, USA).
compound,measurement,setting,value
COCCCOc1cc2c(nc1OC)-c1cc(=O)c(C(=O)O)cn1[C@H](C(C)C)C2 [AB-452],EC50,"[1]; T222, read-out: Adeno infection EC50, P7_KO (T2-22), HBsAg",7.1 ± 1.3 nM
same,EC50,"[1]; read-out: Adeno infection EC50, P5_KO (T3-4), HBsAg",71.6 ± 31.2 nM
same,EC50,"[1]; read-out: Adeno infection EC50, P5_KO (T3-15), HBsAg",56 ± 34 nM
same,EC50,"[1]; read-out: Adeno infection EC50, P7_KO (T2-8), HBsAg",10 ± 1 nM
same,EC50,"[1]; read-out: Adeno infection EC50, WT (parent) HepG2-NTCP, HBsAg",9 ± 4.6 nM
same,Adeno infection FC vs WT,[1]; P5_KO (T3-4),8.0
same,Adeno infection FC vs WT,[1]; P5_KO (T3-15),6.3
same,Adeno infection FC vs WT,[1]; P7_KO (T2-8),1.1
same,Adeno infection FC vs WT,[1]; P7_KO (T2-22),0.8
same,Adeno infection FC vs WT,[1]; WT (parent),1
same,inhibition in P5/7_DKO and Z14_KO cell lines,[1]; adenovirus-transduced and HBV-infected clones (Fig. 7D to G),did not show further inhibition than the untreated controls
same,CC50,[2],> 30000 nM
same,poly(A) tail length after treatment,"[3]; WT and P7_KO cells, untreated >136 bp",~60 bp
same,guanylation frequency of sRNA after treatment,"[3]; WT and P7_KO cells, untreated ∼50%",~10%
same,guanosine incorporation,"[3]; Z14_KO and PAPD5/7_DKO cells, with and without AB-452",~10%
same,EC50,[4],2.3 ± 0.36 nM
same,EC50,[5],> 30000 nM
same,EC50,[6],> 30000 nM
same,EC50,"[7]; 120 h, read-out: EC50, Gluc_dHBx (Gluc activity)",4.2 nM
same,EC50,"[7]; 120 h, read-out: EC50, H133_Gluc (Gluc activity)",10 nM
same,EC50,"[7]; Huh-7, 120 h, read-out: EC50, Gluc_rcSLα (Gluc activity)",> 100 nM
same,EC50,"[7]; Huh-7, 120 h, read-out: EC50, H133 (HBsAg)",2.5 nM
same,EC50,"[7]; Huh-7, 120 h, read-out: EC50, H133_dLa (HBsAg)",4.3 nM
same,EC50,[8],> 30000 nM
same,EC50,"[9]; HepG2-2.2.15, Table 2, read-out: EC50, HBV (HBsAg)",1.2 nM
same,EC50,"[9]; HepG2.2.15 cells, read-out: HBV DNA EC50",0.28 ± 0.01 nM
same,EC50,"[9]; HepG2.2.15 cells, read-out: HBeAg EC50",2.8 ± 2.1 nM
same,EC50,"[9]; HepG2.2.15 cells, read-out: HBsAg EC50",1.4 ± 0.2 nM
same,EC50,[10]; read-out: HBeAg EC50,4 ± 2.3 nM
same,EC50,[10]; read-out: HBsAg EC50,6.8 ± 1.8 nM
same,IC50,[11],498 nM
